Test results reported in PubChem BioAssay (NCI).
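Test compounds were applied to cells in 96-well plates for 48 hours at 5 doses. Definition used: TGI = concentration required for complete inhibition of growth.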

Columns and labels:
Assay in all cases: NCI-60 cell line screen, 48 h
DLD-1 colon = tested on: DLD-1 colon
DMS 273 small cell lung = tested on: DMS 273 small cell lung
SF-268 CNS = tested on: SF-268 CNS
SK-MEL-2 melanoma = tested on: SK-MEL-2 melanoma
NCI-H226 lung = tested on: NCI-H226 lung
LXFL 529 NSCLC = tested on: LXFL 529 NSCLC
KM20L2 colon = tested on: KM20L2 colon
U251 CNS = tested on: U251 CNS
HT29 colon = tested on: HT29 colon
SR leukemia = tested on: SR leukemia
RXF-631 renal = tested on: RXF-631 renal
RXF 393 renal = tested on: RXF 393 renal
SK-OV-3 ovarian = tested on: SK-OV-3 ovarian
CCRF-CEM leukemia = tested on: CCRF-CEM leukemia
OVCAR-4 ovarian = tested on: OVCAR-4 ovarian
786-0 renal = tested on: 786-0 renal
M14 melanoma = tested on: M14 melanoma
NCI-H460 lung = tested on: NCI-H460 lung
KM12 colon = tested on: KM12 colon
EKVX NSCLC = tested on: EKVX NSCLC
SK-MEL-28 melanoma = tested on: SK-MEL-28 melanoma
OVCAR-3 ovarian = tested on: OVCAR-3 ovarian
DMS 114 small cell lung = tested on: DMS 114 small cell lung
MALME-3M melanoma = tested on: MALME-3M melanoma
K-562 leukemia = tested on: K-562 leukemia
UO-31 renal = tested on: UO-31 renal
HOP-62 NSCLC = tested on: HOP-62 NSCLC
SF-295 CNS = tested on: SF-295 CNS
HCT-116 colon = tested on: HCT-116 colon
NCI-H23 lung = tested on: NCI-H23 lung
SNB-78 CNS = tested on: SNB-78 CNS
SK-MEL-5 melanoma = tested on: SK-MEL-5 melanoma
TK-10 renal = tested on: TK-10 renal
OVCAR-8 ovarian = tested on: OVCAR-8 ovarian
OVCAR-5 ovarian = tested on: OVCAR-5 ovarian
ACHN renal = tested on: ACHN renal
SF-539 CNS = tested on: SF-539 CNS
HCC-2998 colon = tested on: HCC-2998 colon
COLO 205 colon = tested on: COLO 205 colon
HOP-92 NSCLC = tested on: HOP-92 NSCLC
HL-60(TB) leukemia = tested on: HL-60(TB) leukemia
IGROV1 ovarian = tested on: IGROV1 ovarian
UACC-257 melanoma = tested on: UACC-257 melanoma
M19-MEL melanoma = tested on: M19-MEL melanoma
SN12C renal = tested on: SN12C renal
HCT-15 colon = tested on: HCT-15 colon
A549 NSCLC = tested on: A549 NSCLC
CAKI-1 renal = tested on: CAKI-1 renal
SNB-19 CNS = tested on: SNB-19 CNS
HOP-18 NSCLC = tested on: HOP-18 NSCLC
MOLT-4 leukemia = tested on: MOLT-4 leukemia
RPMI-8226 leukemia = tested on: RPMI-8226 leukemia
UACC-62 melanoma = tested on: UACC-62 melanoma
SW-620 colon = tested on: SW-620 colon
LOX IMVI melanoma = tested on: LOX IMVI melanoma
SNB-75 CNS = tested on: SNB-75 CNS
NCI-H522 lung = tested on: NCI-H522 lung
A498 renal = tested on: A498 renal
XF 498 CNS = tested on: XF 498 CNS

Compound: CC(C)(C)C[P+](C)(C)c1ccccc1
- TGI (DLD-1 colon): > 100 µM
- TGI (DMS 273 small cell lung): > 100 µM
- TGI (SF-268 CNS): > 100 µM
- TGI (SK-MEL-2 melanoma): > 100 µM
- TGI (NCI-H226 lung): > 100 µM
- TGI (LXFL 529 NSCLC): > 100 µM
- TGI (KM20L2 colon): > 100 µM
- TGI (U251 CNS): > 100 µM
- TGI (HT29 colon): > 100 µM
- TGI (SR leukemia): > 100 µM
- TGI (RXF-631 renal): > 100 µM
- TGI (RXF 393 renal): > 100 µM
- TGI (SK-OV-3 ovarian): > 100 µM
- TGI (CCRF-CEM leukemia): > 100 µM
- TGI (OVCAR-4 ovarian): > 100 µM
- TGI (786-0 renal): > 100 µM
- TGI (M14 melanoma): > 100 µM
- TGI (NCI-H460 lung): > 100 µM
- TGI (KM12 colon): > 100 µM
- TGI (EKVX NSCLC): > 100 µM
- TGI (SK-MEL-28 melanoma): > 100 µM
- TGI (OVCAR-3 ovarian): > 100 µM
- TGI (DMS 114 small cell lung): > 100 µM
- TGI (MALME-3M melanoma): > 100 µM
- TGI (K-562 leukemia): > 100 µM
- TGI (UO-31 renal): > 100 µM
- TGI (HOP-62 NSCLC): > 100 µM
- TGI (SF-295 CNS): > 100 µM
- TGI (HCT-116 colon): > 100 µM
- TGI (NCI-H23 lung): > 100 µM
- TGI (SNB-78 CNS): > 100 µM
- TGI (SK-MEL-5 melanoma): > 100 µM
- TGI (TK-10 renal): > 100 µM
- TGI (OVCAR-8 ovarian): > 100 µM
- TGI (OVCAR-5 ovarian): > 100 µM
- TGI (ACHN renal): > 100 µM
- TGI (SF-539 CNS): > 100 µM
- TGI (HCC-2998 colon): > 100 µM
- TGI (COLO 205 colon): > 100 µM
- TGI (HOP-92 NSCLC): > 100 µM
- TGI (HL-60(TB) leukemia): > 100 µM
- TGI (IGROV1 ovarian): > 100 µM
- TGI (UACC-257 melanoma): > 100 µM
- TGI (M19-MEL melanoma): > 100 µM
- TGI (SN12C renal): > 100 µM
- TGI (HCT-15 colon): > 100 µM
- TGI (A549 NSCLC): > 100 µM
- TGI (CAKI-1 renal): > 100 µM
- TGI (SNB-19 CNS): > 100 µM
- TGI (HOP-18 NSCLC): > 100 µM
- TGI (MOLT-4 leukemia): > 100 µM
- TGI (RPMI-8226 leukemia): > 100 µM
- TGI (UACC-62 melanoma): > 100 µM
- TGI (SW-620 colon): > 100 µM
- TGI (LOX IMVI melanoma): > 100 µM
- TGI (SNB-75 CNS): > 100 µM

Compound: O=C(/C=C/c1ccc(Cl)c(Cl)c1)C1CCC(Cl)CC1 (centres undefined)
- TGI (DLD-1 colon): 29.8 µM
- TGI (DMS 273 small cell lung): 32.1 µM
- TGI (SF-268 CNS): 37.1 µM
- TGI (NCI-H226 lung): 94.8 µM
- TGI (LXFL 529 NSCLC): 32.3 µM
- TGI (KM20L2 colon): 46.7 µM
- TGI (U251 CNS): 28.3 µM
- TGI (HT29 colon): 31.7 µM
- TGI (NCI-H522 lung): 32.9 µM
- TGI (RXF-631 renal): 33.8 µM
- TGI (RXF 393 renal): 37.9 µM
- TGI (SK-OV-3 ovarian): 33 µM
- TGI (OVCAR-4 ovarian): 39.6 µM
- TGI (786-0 renal): 30.6 µM
- TGI (M14 melanoma): 33.4 µM
- TGI (NCI-H460 lung): 73.8 µM
- TGI (KM12 colon): 46.1 µM
- TGI (A498 renal): 83.1 µM
- TGI (EKVX NSCLC): 32 µM
- TGI (SK-MEL-28 melanoma): 31.4 µM
- TGI (OVCAR-3 ovarian): 28.4 µM
- TGI (DMS 114 small cell lung): 30.7 µM
- TGI (XF 498 CNS): 33 µM
- TGI (MALME-3M melanoma): 41.1 µM
- TGI (UO-31 renal): 33.9 µM
- TGI (HOP-62 NSCLC): > 100 µM
- TGI (SF-295 CNS): 35.8 µM
- TGI (HCT-116 colon): 25.1 µM
- TGI (NCI-H23 lung): 38.8 µM
- TGI (SNB-78 CNS): 42.3 µM
- TGI (SK-MEL-5 melanoma): 33.4 µM
- TGI (TK-10 renal): 90.3 µM
- TGI (OVCAR-8 ovarian): 38.5 µM
- TGI (OVCAR-5 ovarian): 43.3 µM
- TGI (ACHN renal): 32 µM
- TGI (SF-539 CNS): 33.6 µM
- TGI (HCC-2998 colon): 32.8 µM
- TGI (COLO 205 colon): 50.3 µM
- TGI (HOP-92 NSCLC): 86.6 µM
- TGI (IGROV1 ovarian): 33.9 µM
- TGI (UACC-257 melanoma): 35.1 µM
- TGI (M19-MEL melanoma): 31.7 µM
- TGI (SN12C renal): 32.7 µM
- TGI (HCT-15 colon): 35.1 µM
- TGI (A549 NSCLC): 46.8 µM
- TGI (CAKI-1 renal): 50.1 µM
- TGI (SNB-19 CNS): 39 µM
- TGI (HOP-18 NSCLC): 58.1 µM
- TGI (RPMI-8226 leukemia): 21 µM
- TGI (UACC-62 melanoma): 31.2 µM
- TGI (SW-620 colon): 31.7 µM
- TGI (LOX IMVI melanoma): 30.7 µM
- TGI (SNB-75 CNS): 44.3 µM
